In ChEMBL document CHEMBL4765420, “Design, synthesis and biological evaluation of novel HDAC inhibitors with improved pharmacokinetic profile in breast cancer” (Eur J Med Chem, 2020):
Active and inactive are the calls of the source. The calls are words filed in the database; no cut-off is given here.

Tests used:
[1] = tested on: MDA-MB-231; assay: Induction of autophagy in human MDA-MB-231 cells expressing GFP-mRFP-LC3 assessed as increase in LC3 punta aggregation at 2.5 to 10 uM measured after 24 hrs by immunofluorescence assay; type: functional, cell-based; conditions: dose 2.5-10 µM
[2] = target: T1, Protein deacetylase HDAC6 (Homo sapiens, UniProt Q9UBN7); assay: Inhibition of recombinant human His-tagged HDAC6 expressed in baculovirus infected insect cells using Ac-Leu-Gly-Lys(Ac)-AMC as substrate measured after 30 mins by fluorescence assay
T1 sequence (Q9UBN7 whole entry): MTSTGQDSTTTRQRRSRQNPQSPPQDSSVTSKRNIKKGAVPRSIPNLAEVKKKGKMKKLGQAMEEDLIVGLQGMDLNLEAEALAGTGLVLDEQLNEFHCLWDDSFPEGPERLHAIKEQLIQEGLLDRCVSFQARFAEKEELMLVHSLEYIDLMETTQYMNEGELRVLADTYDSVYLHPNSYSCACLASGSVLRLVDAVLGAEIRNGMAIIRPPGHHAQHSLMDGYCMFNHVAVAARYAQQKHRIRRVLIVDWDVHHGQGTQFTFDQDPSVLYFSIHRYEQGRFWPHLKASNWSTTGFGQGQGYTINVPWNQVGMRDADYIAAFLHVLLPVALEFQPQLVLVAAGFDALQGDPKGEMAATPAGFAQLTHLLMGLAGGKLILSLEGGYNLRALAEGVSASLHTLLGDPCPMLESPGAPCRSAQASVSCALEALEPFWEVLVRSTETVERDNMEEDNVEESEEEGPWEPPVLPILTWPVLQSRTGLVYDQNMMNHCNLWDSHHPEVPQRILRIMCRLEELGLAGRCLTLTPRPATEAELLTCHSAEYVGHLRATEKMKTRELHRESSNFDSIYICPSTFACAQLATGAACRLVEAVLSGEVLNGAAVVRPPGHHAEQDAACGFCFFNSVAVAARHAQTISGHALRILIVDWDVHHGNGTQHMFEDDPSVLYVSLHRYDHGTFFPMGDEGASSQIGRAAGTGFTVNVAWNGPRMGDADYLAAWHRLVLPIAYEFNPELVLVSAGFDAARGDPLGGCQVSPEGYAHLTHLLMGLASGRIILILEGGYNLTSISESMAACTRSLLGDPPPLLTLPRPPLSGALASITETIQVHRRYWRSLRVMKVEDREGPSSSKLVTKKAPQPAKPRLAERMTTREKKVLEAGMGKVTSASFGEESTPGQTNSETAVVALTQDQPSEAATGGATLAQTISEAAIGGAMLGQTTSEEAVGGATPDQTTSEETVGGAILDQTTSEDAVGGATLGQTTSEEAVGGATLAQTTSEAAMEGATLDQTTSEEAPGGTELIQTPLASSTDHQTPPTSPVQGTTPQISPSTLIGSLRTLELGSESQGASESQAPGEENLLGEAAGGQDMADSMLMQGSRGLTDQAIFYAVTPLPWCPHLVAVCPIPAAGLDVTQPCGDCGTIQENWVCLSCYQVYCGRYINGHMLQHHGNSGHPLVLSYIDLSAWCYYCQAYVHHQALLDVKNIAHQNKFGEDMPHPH

[3] = tested on: MDA-MB-231; assay: Induction of endoplasmic reticulum stress in human MDA-MB-231 cells assessed as increase in PERK expression at 2.5 to 10 uM measured after 24 hrs by DAPI staining based immunofluorescence assay; type: functional, cell-based; conditions: dose 2.5-10 µM
[4] = tested on: MDA-MB-231; assay: Induction of apoptosis in human MDA-MB-231 cells assessed as increase in cleaved caspase-9 expression at 2.5 to 10 uM measured after 24 hrs by Western blot analysis; type: functional, cell-based; conditions: dose 2.5-10 µM
[5] = target: T2, Protein deacetylase HDAC6 (Homo sapiens) (UniProt Q9UBN7); assay: Inhibition of HDAC6 in human MDA-MB-231 cells assessed as increase in alpha-tubulin acetylation at 2.5 to 10 uM measured after 24 hrs by Western blot analysis; type: cell-based; conditions: dose 2.5-10 µM
T2 sequence (whole entry): T1 sequence (Q9UBN7 whole entry)

[6] = tested on: MDA-MB-231; assay: Induction of apoptosis in human MDA-MB-231 cells assessed as early apoptotic cells at 2.5 uM measured after 24 hrs by Annexin-V/propidium iodide staining based flow cytometry (reference value: 0.69 to 0.92%); type: functional
[7] = tested on: MDA-MB-231; assay: Induction of apoptosis in human MDA-MB-231 cells measured after 24 hrs by Annexin-V/propidium iodide staining based flow cytometry; type: functional, cell-based
[8] = tested on: MDA-MB-231; assay: Induction of apoptosis in human MDA-MB-231 cells assessed as viable cells at 2.5 uM measured after 24 hrs by Annexin-V/propidium iodide staining based flow cytometry (reference value: 95.68 to 98.38%); type: functional; conditions: read-out: Activity
[9] = target: Histone deacetylase 9 (Homo sapiens, UniProt Q9UKV0); assay: Inhibition of recombinant human full-length N-terminal GST-tagged HDAC9 (1 to 1069 residues) expressed in wheat germ expression system using Ac-Leu-Gly-Lys(Tfa)-AMC as substrate measured after 30 mins by fluorescence assay
[10] = target: T3, Histone deacetylase 8 (Homo sapiens, UniProt Q9BY41); assay: Inhibition of recombinant human full-length C-terminal His-tagged HDAC8 expressed in baculovirus infected Sf9 insect cells using Ac-Leu-Gly-Lys(Tfa)-AMC as substrate measured after 30 mins by fluorescence assay
T3 sequence (Q9BY41 whole entry): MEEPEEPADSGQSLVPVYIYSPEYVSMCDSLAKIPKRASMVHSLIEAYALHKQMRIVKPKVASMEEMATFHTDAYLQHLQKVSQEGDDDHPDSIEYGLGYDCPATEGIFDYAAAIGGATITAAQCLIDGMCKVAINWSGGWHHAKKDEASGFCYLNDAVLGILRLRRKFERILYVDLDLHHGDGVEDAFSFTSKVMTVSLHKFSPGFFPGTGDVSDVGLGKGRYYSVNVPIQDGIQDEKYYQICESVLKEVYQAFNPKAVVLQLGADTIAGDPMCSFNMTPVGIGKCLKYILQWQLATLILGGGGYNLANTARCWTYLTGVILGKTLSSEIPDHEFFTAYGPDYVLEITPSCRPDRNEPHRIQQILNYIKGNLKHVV

[11] = tested on: MDA-MB-231; assay: Induction of endoplasmic reticulum stress in human MDA-MB-231 cells assessed as increase in PERK expression at 2.5 to 10 uM measured after 24 hrs by Western blot analysis; type: functional, cell-based; conditions: dose 2.5-10 µM
[12] = tested on: MDA-MB-231; assay: Induction of apoptosis in human MDA-MB-231 cells assessed as early apoptotic cells at 5 uM measured after 24 hrs by Annexin-V/propidium iodide staining based flow cytometry (reference value: 0.69 to 0.92%); type: functional
[13] = tested on: MDA-MB-231; assay: Induction of apoptosis in human MDA-MB-231 cells assessed as late apoptotic cells at 10 uM measured after 24 hrs by Annexin-V/propidium iodide staining based flow cytometry (reference value: 0.71 to 2.94%); type: functional
[14] = target: Histone deacetylase 1 (Homo sapiens, UniProt Q13547); assay: Inhibition of recombinant human His-tagged HDAC1 expressed in insect cells using Ac-Leu-Gly-Lys(Ac)-AMC as substrate measured after 30 mins by fluorescence assay
[15] = tested on: MDA-MB-231; assay: Induction of autophagy in human MDA-MB-231 cells assessed as increase in LC3II expression at 2.5 to 10 uM measured after 24 hrs by Western blot analysis; type: functional, cell-based; conditions: dose 2.5-10 µM

Sequence of Histone deacetylase 1 (Q13547 whole entry): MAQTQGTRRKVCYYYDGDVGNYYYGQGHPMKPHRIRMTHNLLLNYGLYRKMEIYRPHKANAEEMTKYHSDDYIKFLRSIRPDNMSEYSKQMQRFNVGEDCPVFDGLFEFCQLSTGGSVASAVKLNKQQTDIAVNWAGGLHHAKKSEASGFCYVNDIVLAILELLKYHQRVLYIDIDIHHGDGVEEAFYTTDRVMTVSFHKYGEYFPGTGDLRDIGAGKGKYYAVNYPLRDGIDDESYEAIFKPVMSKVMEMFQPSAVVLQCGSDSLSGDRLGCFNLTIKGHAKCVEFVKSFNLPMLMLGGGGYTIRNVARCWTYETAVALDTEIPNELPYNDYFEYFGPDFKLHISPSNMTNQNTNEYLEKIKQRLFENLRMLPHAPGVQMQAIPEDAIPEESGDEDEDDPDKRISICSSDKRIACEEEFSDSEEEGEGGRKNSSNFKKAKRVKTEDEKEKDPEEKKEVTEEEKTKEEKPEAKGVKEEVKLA
Sequence of Histone deacetylase 9 (Q9UKV0 whole entry, the tested form may be a part): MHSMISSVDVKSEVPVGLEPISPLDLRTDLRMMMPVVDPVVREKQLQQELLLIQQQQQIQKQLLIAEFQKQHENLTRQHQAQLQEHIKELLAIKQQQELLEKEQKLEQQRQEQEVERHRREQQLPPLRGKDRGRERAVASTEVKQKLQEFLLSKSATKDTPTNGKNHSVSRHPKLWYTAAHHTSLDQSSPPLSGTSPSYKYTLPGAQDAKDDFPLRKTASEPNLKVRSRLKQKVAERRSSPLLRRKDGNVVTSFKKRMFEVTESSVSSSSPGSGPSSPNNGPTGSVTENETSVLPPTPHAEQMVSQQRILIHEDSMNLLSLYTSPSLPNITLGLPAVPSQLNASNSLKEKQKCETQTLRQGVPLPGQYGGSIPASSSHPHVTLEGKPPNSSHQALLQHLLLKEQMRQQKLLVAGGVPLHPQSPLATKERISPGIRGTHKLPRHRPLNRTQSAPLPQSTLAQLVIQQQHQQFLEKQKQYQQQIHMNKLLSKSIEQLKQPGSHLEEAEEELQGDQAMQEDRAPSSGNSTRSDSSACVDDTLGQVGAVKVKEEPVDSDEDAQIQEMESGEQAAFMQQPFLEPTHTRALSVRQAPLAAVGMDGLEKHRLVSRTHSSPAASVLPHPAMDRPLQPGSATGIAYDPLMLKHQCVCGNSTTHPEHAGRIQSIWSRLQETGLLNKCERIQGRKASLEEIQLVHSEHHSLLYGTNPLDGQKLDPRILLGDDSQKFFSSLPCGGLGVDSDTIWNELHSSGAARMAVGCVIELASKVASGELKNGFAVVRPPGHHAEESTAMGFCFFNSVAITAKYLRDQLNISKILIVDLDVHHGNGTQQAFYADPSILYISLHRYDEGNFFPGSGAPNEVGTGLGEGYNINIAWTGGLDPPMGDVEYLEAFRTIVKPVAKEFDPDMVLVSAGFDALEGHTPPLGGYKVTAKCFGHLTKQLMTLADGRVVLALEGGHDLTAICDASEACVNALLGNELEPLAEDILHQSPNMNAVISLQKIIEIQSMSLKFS

IC50 [2]: 55.3 nM
inhibition [5]: Active
IC50 [9]: > 1000 nM
IC50 [10]: 404 nM
IC50 [14]: 99.6 nM
Structure (SMILES): COc1cc(OC)c2c(N3CCS(=O)(=O)CC3)nc(-c3cc(C)c(OCCCCCC(=O)NO)c(C)c3)nc2c1
Activity [1]: Active
Activity [3]: Active
Activity [4]: Active
Activity [6]: 11.77%
Activity [7]: Dose-dependent effect
viability at 2.5 µM [8]: 84.2%
Activity [11]: Active
Activity [12]: 16.28%
Activity [13]: 35.5%
Activity [15]: Active
